In US12213970B2, “Pyridinyl sulfonamide derivatives, pharmaceutical compositions and uses thereof” (Boehringer Ingelheim International GmbH, priority 2018, dated 2025):
pIC50: −log10 of the molar value. Counter-ions that a name gives are not always drawn. Like-named read-outs stand apart in the source and are kept apart here.

What was measured:
MAO-A = biological target: T1, MAO-A (Homo sapiens, UniProt P21397); experiment: MAO-A biochemical assay (MAO-Glo)
T1 construct: purchased Sigma-Aldrich M7316
T1 sequence (P21397 1-527): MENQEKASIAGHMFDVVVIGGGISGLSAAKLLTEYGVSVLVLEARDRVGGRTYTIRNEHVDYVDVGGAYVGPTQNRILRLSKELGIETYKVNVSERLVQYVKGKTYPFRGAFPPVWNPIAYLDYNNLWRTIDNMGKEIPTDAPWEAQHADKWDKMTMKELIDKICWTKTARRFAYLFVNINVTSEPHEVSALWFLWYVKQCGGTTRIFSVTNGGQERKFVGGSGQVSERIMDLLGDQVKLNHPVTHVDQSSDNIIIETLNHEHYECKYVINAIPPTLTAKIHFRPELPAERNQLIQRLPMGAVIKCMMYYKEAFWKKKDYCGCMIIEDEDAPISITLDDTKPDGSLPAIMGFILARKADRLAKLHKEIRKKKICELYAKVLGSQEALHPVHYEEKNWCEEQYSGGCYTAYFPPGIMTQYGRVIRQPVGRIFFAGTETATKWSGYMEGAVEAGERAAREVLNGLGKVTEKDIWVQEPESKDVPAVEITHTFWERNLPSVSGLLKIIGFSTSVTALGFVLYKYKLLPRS
Description: The MAO-Glo™ Assay (commercially available from PROMEGA, #V1402) provides a sensitive method for the measurement of monoamine oxidase (MAO) activity (Valley, M. P. et al., 2006, Anal. Biochem. 359: 238-246) from a variety of tissues, biofluids or recombinant expressed or purified enzymes. As substrate a derivate of the beetle luciferin ((4S)-4,5-dihydro-2-(6-hydroxybenzothiazolyl)-4-thiazole-carboxylic acid) is used, which is oxidized at a primary amine moiety. After a spontaneous elimination and a catalyzed esterase reaction, the turnover of luciferin by the luciferase is recorded as a signal of MAO-A activity.
An aliquot of 3 μL of the compound dilution is added to a 384 well plate (Optiplate, PS, flat bottom F, black, PERKIN ELMER, #6007270) in a DMSO concentration of 1.025%.
A MAO-A enzyme aliquot (M7316, Sigma-Aldrich) is thawed on ice, diluted in reaction buffer to 1.25 mU/μL and added in a volume of 5 μL to the wells. After incubation for 20 minutes at 37° C., 2 μL of MAO substrate (dissolved in DMSO at 16 mM, diluted to 20 μM in assay buffer to obtain a final assay concentration of 4 μM) is added, mixed, and the mixture further incubated for 60 minutes at 37° C.
The turnover of the substrate is determined by the addition of 10 μL of the Detection Reagent mix which was generated by the addition of reconstitution buffer with esterase (PROMEGA, #V1402) to the luciferin detection reagent (PROMEGA, #V1402). After an incubation period of 20 minutes at 37° C., the luminescent signal is measured with a […], e.g. Envision 2104 Multilabel Reader (PERKIN ELMER).

AOC2 = biological target: T2, AOC2 (Homo sapiens, UniProt O75106); experiment: AOC2 biochemical assay (Amplex Red)
T2 construct: host or cells: HEK293 cells (transient transfection), cell homogenate
T2 sequence (O75106 1-756): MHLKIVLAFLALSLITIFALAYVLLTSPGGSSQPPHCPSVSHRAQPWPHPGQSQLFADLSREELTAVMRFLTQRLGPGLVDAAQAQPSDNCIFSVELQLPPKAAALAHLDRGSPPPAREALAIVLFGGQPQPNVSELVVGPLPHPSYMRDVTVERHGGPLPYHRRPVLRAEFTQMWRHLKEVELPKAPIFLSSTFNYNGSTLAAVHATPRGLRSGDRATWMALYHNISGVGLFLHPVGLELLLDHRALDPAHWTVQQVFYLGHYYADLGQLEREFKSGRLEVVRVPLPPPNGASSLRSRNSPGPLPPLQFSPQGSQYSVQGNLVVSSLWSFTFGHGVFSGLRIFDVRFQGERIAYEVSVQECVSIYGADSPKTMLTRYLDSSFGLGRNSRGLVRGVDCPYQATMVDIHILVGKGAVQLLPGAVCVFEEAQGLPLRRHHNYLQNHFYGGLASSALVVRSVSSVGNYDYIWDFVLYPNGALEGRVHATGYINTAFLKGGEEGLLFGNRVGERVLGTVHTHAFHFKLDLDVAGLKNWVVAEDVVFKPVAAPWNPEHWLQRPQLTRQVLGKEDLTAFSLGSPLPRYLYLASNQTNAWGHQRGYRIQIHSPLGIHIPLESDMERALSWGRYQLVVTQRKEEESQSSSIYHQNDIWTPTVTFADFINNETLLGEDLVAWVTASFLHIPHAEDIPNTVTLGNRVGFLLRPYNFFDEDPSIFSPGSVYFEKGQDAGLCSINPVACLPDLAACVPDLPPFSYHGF
Protocol: The Amplex® Red Assay (commercially available from Thermo Fisher Scientific) provides a sensitive method for the detection of H2O2 generated during enzymatic reactions like the amine oxidation catalyzed by AOC2. […] An aliquot of 5 μL of the compound dilution is added to a 96 well plate (flat bottom F, black, GREINER bio-one, #655900) in a DMSO concentration of 2%. […] Cells are cultured for 3 days in EMEM culture medium containing 10% FCS (#04-00-1A, Biological Industries). After washing twice with ice cold PBS, cells are lysed by mechanic homogenation and cleared supernatants are shock frozen in liquid nitrogen and stored at -80° C. For the determination of AOC2 enzymatic activity cell lysates are thawed on ice and 1:1 diluted with reaction buffer. An Aliquot of 45 μL is added to the compound dilution and incubated for 30 min at 37° C. The enzymatic reaction is started with the addition of 50 μL of Amplex® Red reaction mix (final assay concentration: 100 mM sodiumphosphate, 120 μM Amplex® Red reagent (#A22177 Molecular Probes), 1.5 U/mL Horseradish Peroxidase (#P8375 Sigma-Aldrich), 2 mM phenylethylamine (#[…] Sigma-Aldrich), 0.05% Pluronic F-127 (#P3000MP Sigma-Aldrich), pH 7.4, 37° C.). The turnover per time of the substrate is determined directly with a fluorescence reader (Ex 540 nm/Em 590 nm) like Envision 2104 Multilabel Reader (PERKIN ELMER) for 60 min. (cf. Anal Biochem (1997) 253:169-174; Anal Biochem (1997) 253:162-168)

[1] = comparison table, read-out: IC50 MAO-A

Row | SMILES | pIC50 (MAO-A; IC50, read-out: MAO-A) | pIC50 (AOC2; read-out: AOC2 IC50) | other results
1 | CN(C)S(=O)(=O)c1ccc(OC/C(=C\F)CN)cc1 [Compound 10 of WO 2013/163675, reference compound] | – | – | pIC50 (MAO-A; read-out: IC50 MAO-A): 5.13; ratio IC50 AOC2/IC50 AOC3 (fold less active against AOC2 as compared to AOC3) (AOC2; AOC2 versus AOC3): ca. 270 fold; pIC50 (AOC2; read-out: IC50 AOC2): 6.27
2 | CN1CCN(C2CCN(S(=O)(=O)c3ccc(OC/C(=C\F)CN)nc3)CC2)C1=O [Example 1, 1-{1-[6-((Z)-2-Aminomethyl-3-fluoro-allyloxy)-pyridine-3-sulfonyl]-piperidine-4-yl}-3-methyl-imidazolidin-2-one trifluoroacetate] | < 4.30 | 6.92 | –
3 | CC(C)(O)CNC(=O)[C@H]1CCN(S(=O)(=O)c2ccc(OC/C(=C\F)CN)nc2)C1 [Example 2] | < 4.30 | 6.57 | –
4 | NC/C(=C/F)COc1ccc(S(=O)(=O)N2CCC(C(=O)N3CCOCC3)CC2)cn1 [Example 3] | < 4.30 | – | IC50 (AOC2; value in μM, read-out: AOC2 IC50): 23.4 µM
5 | CN(C)C(=O)[C@H]1CCN(S(=O)(=O)c2ccc(OC/C(=C\F)CN)nc2)C1 [Example 4] | < 4.30 | 6.40 | –
6 | CNC(=O)[C@@H]1[C@@H]2CN(S(=O)(=O)c3ccc(OC/C(=C\F)CN)nc3)C[C@@H]21 [Example 5] | < 4.30 | 6.46 | –
7 | CC(=O)N[C@H]1CCCN(S(=O)(=O)c2ccc(OC/C(=C\F)CN)nc2)C1 [Example 6] | < 4.30 | 6.55 | –
8 | NC/C(=C/F)COc1ccc(S(=O)(=O)N2CCC(C(N)=O)CC2)cn1 [Example 7] | < 4.30 | 6.57 | –
9 | CNC(=O)[C@@H]1CCCN1S(=O)(=O)c1ccc(OC/C(=C\F)CN)nc1 [Example 8] | < 4.30 | 6.59 | –
10 | CC(=O)N1CC(C2CCN(S(=O)(=O)c3ccc(OC/C(=C\F)CN)nc3)CC2)C1 [Example 9] | < 4.30 | 6.65 | –
11 | NC/C(=C/F)COc1ccc(S(=O)(=O)N2CCC(C(=O)N3CCC3)CC2)cn1 [Example 10] | < 4.30 | 6.67 | –
12 | CNC(=O)[C@H]1CCN(S(=O)(=O)c2ccc(OC/C(=C\F)CN)nc2)C1 [Example 11] | < 4.30 | 6.68 | –
13 | CC(=O)NC1CCN(S(=O)(=O)c2ccc(OC/C(=C\F)CN)nc2)C1 (stereo not drawn) [Example 12] | < 4.30 | 6.68 | –
14 | NC/C(=C/F)COc1ccc(S(=O)(=O)N2CCC[C@H]2C(N)=O)cn1 [Example 13] | < 4.30 | 6.69 | –
15 | CNC(=O)[C@@H]1CCN(S(=O)(=O)c2ccc(OC/C(=C\F)CN)nc2)C1 [Example 14] | < 4.30 | 6.69 | –
16 | CCNC(=O)C1CCN(S(=O)(=O)c2ccc(OC/C(=C\F)CN)nc2)CC1 [Example 15] | < 4.30 | 6.69 | –
17 | CC1(O)CN(S(=O)(=O)c2ccc(OC/C(=C\F)CN)nc2)C1 [Example 16] | 4.89 | 6.72 | –
18 | CN(C)C(=O)C1CCN(S(=O)(=O)c2ccc(OC/C(=C\F)CN)nc2)CC1 [Example 17] | < 4.30 | 6.72 | –
19 | NC/C(=C/F)COc1ccc(S(=O)(=O)N2CCC[C@@H]2C(N)=O)cn1 [Example 18] | < 4.30 | 6.75 | –

Row | SMILES | pIC50 (MAO-A; IC50, read-out: MAO-A) | pIC50 (AOC2; read-out: AOC2 IC50) | other results
20 | CN(C)C(=O)CC1CCN(S(=O)(=O)c2ccc(OC/C(=C\F)CN)nc2)CC1 [Example 19] | < 4.30 | 6.89 | –
21 | NC/C(=C/F)COc1ccc(S(=O)(=O)N2CC(C(N)=O)C2)cn1 [Example 20] | < 4.30 | 6.92 | –
22 | NC/C(=C/F)COc1ccc(S(=O)(=O)N2CC[C@H](C(=O)N3CCOCC3)C2)cn1 [Example 21] | < 4.30 | 7.00 | –
23 | NC/C(=C/F)COc1ccc(S(=O)(=O)N2C[C@H]3C[C@@]3(C(=O)N3CCOCC3)C2)cn1 [Example 22] | < 4.30 | 7.03 | –
24 | CCNC(=O)C1(C)CCN(S(=O)(=O)c2ccc(OC/C(=C\F)CN)nc2)CC1 [Example 23] | < 4.30 | 7.10 | –
25 | CC(=O)N[C@@H]1CCCN(S(=O)(=O)c2ccc(OC/C(=C\F)CN)nc2)C1 [Example 24] | < 4.30 | 7.14 | –
26 | CN(C)C(=O)C1CN(S(=O)(=O)c2ccc(OC/C(=C\F)CN)nc2)C1 [Example 25] | < 4.30 | 7.17 | –
27 | NC/C(=C/F)COc1ccc(S(=O)(=O)N2CC(C3CCN(C(=O)C4CC4)CC3)C2)cn1 [Example 26] | < 4.30 | 7.20 | –
28 | CNC(=O)[C@H]1[C@@H]2CN(S(=O)(=O)c3ccc(OC/C(=C\F)CN)nc3)C[C@@H]21 [Example 27] | < 4.30 | 7.21 | –
29 | CC(=O)NCC1CCN(S(=O)(=O)c2ccc(OC/C(=C\F)CN)nc2)CC1 [Example 28] | < 4.30 | 7.23 | –
30 | CNC(=O)[C@@]12C[C@@H]1CN(S(=O)(=O)c1ccc(OC/C(=C\F)CN)nc1)C2 [Example 29] | < 4.30 | 7.24 | –
31 | CC(F)(F)CNC(=O)CC1CCN(S(=O)(=O)c2ccc(OC/C(=C\F)CN)nc2)CC1 [Example 51] | 4.70 | – | –
32 | NC/C(=C/F)COc1ccc(S(=O)(=O)N2CCC(CC(=O)NCCO)CC2)cn1 [Example 52] | 4.59 | – | –
33 | CC1(C(=O)NCCF)CCN(S(=O)(=O)c2ccc(OC/C(=C\F)CN)nc2)CC1 [Example 53] | < 4.30 | – | –
34 | COCCNC(=O)CC1CCN(S(=O)(=O)c2ccc(OC/C(=C\F)CN)nc2)CC1 [Example 54] | 4.57 | – | –
35 | NC/C(=C/F)COc1ccc(S(=O)(=O)N2CCC(CC(=O)N3CC(O)C3)CC2)cn1 [Example 55] | < 4.30 | – | –
36 | CC1(C(=O)NC2CC2)CCN(S(=O)(=O)c2ccc(OC/C(=C\F)CN)nc2)CC1 [Example 56] | < 4.30 | – | –
37 | NC/C(=C/F)COc1ccc(S(=O)(=O)N2CC[C@H](O)C2)cc1 [Reference compound B, reference compound] | – | – | pIC50 (MAO-A; [1]): 5.14
38 | NC/C(=C/F)COc1cnc(N2CCC(O)CC2)nc1 [reference compound] | – | – | pIC50 (MAO-A; [1]): 4.26
